Source: patent publication US8889705B2, “Noscapine analogs and their use in treating cancers” (Emory University, priority 2007, dated 2014)
Entries after “also recorded” stand apart in the source; their conditions may differ.

Columns and labels:
CEM/VLB100 cells = test: Cell cycle analysis (propidium iodide, flow cytometry); assay type: cell-based, human; conditions: CEM/VLB100, 25 μM
Procedure: (§1) The flow cytometric evaluation of the cell cycle status was performed as described previously (Zhou et al., 2003). Briefly, 2×10^6 cells were centrifuged, washed twice with ice-cold PBS, and fixed in 70% ethanol. Tubes containing the cell pellets were stored at 4° C. for at least 24 hours. Cells were then centrifuged at 1000×g for 10 min and the supernatant was discarded. The pellets were washed twice with 5 ml of PBS and then stained with 0.5 ml of propidium iodide (0.1% in 0.6% Triton-X in PBS) and 0.5 ml of RNase A (2 mg/ml) for 45 minutes in dark. Samples were then analyzed on a FACSCalibur flow cytometer (Beckman Coulter Inc., Fullerton, Calif.).

CEM/VM-1-5 cells = test: as above; assay type: cell-based, human; conditions: CEM/VM-1-5, 25 μM
Procedure: as §1

CEM cells = test: as above; assay type: cell-based, human; conditions: 25 μM
Procedure: as §1

1A9 cells = test: Sulforhodamine B cell proliferation assay; assay type: cell-based; conditions: Homo sapiens; 1A9, 72 hours, SRB
Procedure: (§2) Sulforhodamine B assay: The cell proliferation assay was performed in 96-well plates as described previously (Skehan et al., 1990; Zhou et al., 2003). Adherent cells (1A9 and 1A9/PTX22) were seeded in 96-well plates at a density of 5×10^3 cells per well. They were treated with increasing gradient concentrations of 9-nitro-nos the next day while in log-phase growth. After 72 hours of drug treatment, cells were fixed with 50% trichloroacetic acid and stained with 0.4% sulforhodamine B dissolved in 1% acetic acid. Cells were then washed with 1% acetic acid to remove unbound dye. The protein-bound dye was extracted with 10 mM Tris base to determine the optical density at 564-nm wavelength.

1A9/PTX22 cells = test: Sulforhodamine B cell proliferation assay; assay type: cell-based; conditions: Homo sapiens, 1A9/ptx-22; 1A9/PTX22, 72 hours, SRB
Procedure: as §2

tubulin = biological target: T1, tubulin; test: Tubulin binding assay (fluorescence titration, quenching of intrinsic tubulin fluorescence); design: species or system mammalian; conditions: 2 μM tubulin, 45 min at 37° C., double reciprocal plot; read-out: dissociation constant (Kd) for binding to tubulin
T1 construct: other: 2 μM tubulin, 45 min at 37° C., double reciprocal plot; rate and extent of tubulin polymerization; other: 25 μM or 100 μM
Procedure: Fluorescence titration for determining the tubulin binding parameters was performed as described previously (Gupta and Panda, 2002). In brief, 9-nitro-nos (0-100 μM) was incubated with 2 μM tubulin in 25 mM PIPES, pH 6.8, 3 mM MgSO4 and 1 mM EGTA for 45 min at 37° C. The relative intrinsic fluorescence intensity of tubulin was then monitored in a JASCO FP-6500 spectrofluorometer (JASCO, Tokyo, Japan) using a cuvette of 0.3-cm path length, and the excitation wavelength was 295 nm. The fluorescence emission intensity of 9-nitro-nos at this excitation wavelength was negligible. A 0.3-cm path-length cuvette was used to minimize the inner filter effects caused by the absorbance of 9-nitro-nos at higher concentration ranges. In addition, the inner filter effects were corrected using a formula Fcorrected=Fobserved·antilog [(Aex+Aem)/2], where Aex is the absorbance at the excitation wavelength and Aem is the absorbance at the emission wavelength. The dissociation constant (Kd) was determined by the formula: 1/B=Kd/[free ligand]+1, where B is the fractional occupancy and [free ligand] is the concentration of free noscapine or 9-nitro-nos. The fractional occupancy (B) was determined by the formula B=ΔF/ΔFmax, where ΔF is the change in fluorescence intensity when tubulin and its ligand are in equilibrium and ΔFmax is the value of maximum fluorescence change when tubulin is completely bound with its ligand. ΔFmax was calculated by plotting 1/ΔF versus 1/ligand using total ligand concentration as the first estimate of free ligand concentration.
Fluorescence titration for determining the tubulin binding parameters was performed as described previously. In brief, 9-F-nos, 9-Cl-nos, 9-Br-nos or 9-I-nos (0-100 μM) was incubated with 2 μM tubulin in 25 mM PIPES, pH 6.8, 3 mM MgSO4, and 1 mM EGTA for 45 min at 37° C. The relative intrinsic fluorescence intensity of tubulin was then monitored in a JASCO FP-6500 spectrofluorometer (JASCO, Tokyo, Japan) using a cuvette of 0.3-cm path length, and the excitation wavelength was 295 nm. The fluorescence emission intensity of noscapine and its derivatives at this excitation wavelength was negligible. A 0.3-cm path-length cuvette was used to minimize the inner filter effects caused by the absorbance of these agents at higher concentration ranges. In addition, the inner filter effects were corrected using a formula F corrected=F observe·antilog [(Aex+Aem)/2], where Aex is the absorbance at the excitation wavelength and Aem is the absorbance at the emission wavelength. The dissociation constant (Kd) was determined by the formula: 1/B=Kd/[free ligand]+1, where B is the fractional occupancy and [free ligand] is the concentration of 9-F-nos, 9-Cl-nos, 9-Br-nos or 9-I-nos. The fractional occupancy (B) was determined by the formula B=ΔF/ΔFmax, where ΔF is the change in fluorescence intensity when tubulin and its ligand are in equilibrium and ΔFmax is the value of maximum fluorescence change when tubulin is completely bound with its ligand. ΔFmax was calculated by plotting 1/ΔF versus 1/[free ligand].

[1] = tested on: normal human fibroblast cells; test: Cell cycle analysis (propidium iodide, flow cytometry); assay type: cell-based; conditions: 100 μM
Procedure: as §1

COc1ccc2c(c1OC)C(=O)O[C@@H]2[C@H]1c2c(c([N+](=O)[O-])c3c(c2OC)OCO3)CCN1C [9-nitro-nos, (S)-6,7-dimethoxy-3-((R)-4-methoxy-6-methyl-9-nitro-5,6,7,8-tetrahydro-[1,3]dioxolo[4,5-g]isoquinolin-5-yl)isobenzofuran-1(3H)-one]
G0/G1 (CEM/VLB100 cells; 0 h): 46.9%
G2/M (CEM/VLB100 cells; 0 h): 25.7%
S (CEM/VLB100 cells; 0 h): 17.6%
Sub-G1 (CEM/VLB100 cells; 0 h): 3.6%
G0/G1 (CEM/VLB100 cells; 24 h): 25.5%
G2/M (CEM/VLB100 cells; 24 h): 36.0%
S (CEM/VLB100 cells; 24 h): 17.7%
Sub-G1 (CEM/VLB100 cells; 24 h): 14.8%
G0/G1 (CEM/VLB100 cells; 48 h): 23.7%
G2/M (CEM/VLB100 cells; 48 h): 30.2%
S (CEM/VLB100 cells; 48 h): 9.3%
Sub-G1 (CEM/VLB100 cells; 48 h): 30.7%
G0/G1 (CEM/VLB100 cells; 72 h): 8.7%
G2/M (CEM/VLB100 cells; 72 h): 12.5%
S (CEM/VLB100 cells; 72 h): 4.5%
Sub-G1 (CEM/VLB100 cells; 72 h): 56.1%
G0/G1 (CEM/VM-1-5 cells; 0 h): 36.0%
G2/M (CEM/VM-1-5 cells; 0 h): 30.7%
S (CEM/VM-1-5 cells; 0 h): 19.4%
Sub-G1 (CEM/VM-1-5 cells; 0 h): 3.4%
G0/G1 (CEM/VM-1-5 cells; 24 h): 25.4%
G2/M (CEM/VM-1-5 cells; 24 h): 41.0%
S (CEM/VM-1-5 cells; 24 h): 13.0%
Sub-G1 (CEM/VM-1-5 cells; 24 h): 18.8%
G0/G1 (CEM/VM-1-5 cells; 48 h): 13.7%
G2/M (CEM/VM-1-5 cells; 48 h): 15.0%
S (CEM/VM-1-5 cells; 48 h): 11.0%
Sub-G1 (CEM/VM-1-5 cells; 48 h): 58.0%
G0/G1 (CEM/VM-1-5 cells; 72 h): 10.5%
G2/M (CEM/VM-1-5 cells; 72 h): 12.2%
S (CEM/VM-1-5 cells; 72 h): 8.7%
Sub-G1 (CEM/VM-1-5 cells; 72 h): 63.0%
G0/G1 (CEM cells; 0 h): 45.5%
G2/M (CEM cells; 0 h): 20.9%
S (CEM cells; 0 h): 25.0%
Sub-G1 (CEM cells; 0 h): 0.25%
G0/G1 (CEM cells; 24 h): 24.8%
G2/M (CEM cells; 24 h): 34.2%
S (CEM cells; 24 h): 10.0%
Sub-G1 (CEM cells; 24 h): 6.5%
G0/G1 (CEM cells; 48 h): 19.7%
G2/M (CEM cells; 48 h): 40.0%
S (CEM cells; 48 h): 8.1%
Sub-G1 (CEM cells; 48 h): 23.8%
G0/G1 (CEM cells; 72 h): 13.9%
G2/M (CEM cells; 72 h): 16.9%
S (CEM cells; 72 h): 8.9%
Sub-G1 (CEM cells; 72 h): 44.3%
IC50 (1A9 cells): 30.1 µM
IC50 (1A9/PTX22 cells): 27.5 µM
Kd (tubulin): 86 ± 6 µM
cell cycle profile of normal human fibroblast cells [1]: did not observe any perturbations in the cell cycle profile; also recorded: did not alter the cell cycle progression profile
